Experiments:
[1] = tested on: HepG2 reporter cell lines; assay: ToxProfiler cell stress assay; assay type: cell-based, human
Human MRP2 = Human MRP2 (Homo sapiens, UniProt Q92887); conditions: not told
Human OAT2v1 = Human OAT2v1 (Homo sapiens, UniProt Q9Y694)
estrogen receptor (ER) = conditions: ref ToxCast, cited from earlier work
androgen receptor (AR) = tested on: androgen receptor (AR); design: method as in ToxCast; conditions: ref ToxCast, cited from earlier work
[2] = tested on: Thyroid (TR and TPO only); design: method as in ToxCast; conditions: ref ToxCast, cited from earlier work
estrogen receptor = tested on: estrogen receptor; design: method as in ToxCast database; conditions: ref ToxCast database; cited from earlier work
androgen receptor [3] = tested on: androgen receptor; design: method as in ToxCast database; conditions: ref ToxCast database; cited from earlier work
androgen receptor [4] = tested on: androgen receptor; design: method as in ToxCast database; conditions: ref ToxCast database; cited from earlier work; remark: listed apart in the source
androgen receptor [5] = tested on: androgen receptor; design: method as in ToxCast database; conditions: ref ToxCast database; cited from earlier work; remark: listed apart in the source
Aromatase = tested on: Aromatase; design: method as in ToxCast database; conditions: ref ToxCast database; cited from earlier work
THRa = tested on: THRa; design: method as in ToxCast database; conditions: ref ToxCast database; cited from earlier work
thyroid pathway [6] = tested on: thyroid pathway; design: method as in ToxCast database; conditions: ref ToxCast database; cited from earlier work
TSHR = tested on: TSHR; design: method as in ToxCast database; conditions: ref ToxCast database; cited from earlier work
thyroid pathway [7] = tested on: thyroid pathway; design: method as in ToxCast database; conditions: ref ToxCast database; cited from earlier work; remark: listed apart in the source
in vitro = conditions: human, plasma
rats = conditions: teratogenic and embryotoxic effects; ref SCCS, 2023b; cited from earlier work
[8] = ref PubChem or the ECHA database; cited from earlier work

Chain of Human OAT2v1 (Q9Y694 1-546 isoform Q9Y694-2): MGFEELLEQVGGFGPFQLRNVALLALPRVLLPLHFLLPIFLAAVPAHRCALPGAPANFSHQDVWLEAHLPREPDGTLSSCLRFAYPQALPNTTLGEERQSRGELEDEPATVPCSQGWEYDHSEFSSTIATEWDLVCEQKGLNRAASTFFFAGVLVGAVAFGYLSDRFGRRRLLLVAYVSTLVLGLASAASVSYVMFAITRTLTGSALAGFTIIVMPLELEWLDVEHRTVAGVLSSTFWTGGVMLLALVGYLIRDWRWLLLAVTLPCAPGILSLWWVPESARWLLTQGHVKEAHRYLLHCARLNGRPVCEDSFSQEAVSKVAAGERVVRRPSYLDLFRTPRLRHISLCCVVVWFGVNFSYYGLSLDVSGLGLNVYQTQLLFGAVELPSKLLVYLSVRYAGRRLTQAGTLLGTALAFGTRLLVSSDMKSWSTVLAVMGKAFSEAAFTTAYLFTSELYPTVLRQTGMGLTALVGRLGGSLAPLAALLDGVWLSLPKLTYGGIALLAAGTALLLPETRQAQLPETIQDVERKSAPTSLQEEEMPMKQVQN
Chain of Human MRP2 (Q92887 whole entry): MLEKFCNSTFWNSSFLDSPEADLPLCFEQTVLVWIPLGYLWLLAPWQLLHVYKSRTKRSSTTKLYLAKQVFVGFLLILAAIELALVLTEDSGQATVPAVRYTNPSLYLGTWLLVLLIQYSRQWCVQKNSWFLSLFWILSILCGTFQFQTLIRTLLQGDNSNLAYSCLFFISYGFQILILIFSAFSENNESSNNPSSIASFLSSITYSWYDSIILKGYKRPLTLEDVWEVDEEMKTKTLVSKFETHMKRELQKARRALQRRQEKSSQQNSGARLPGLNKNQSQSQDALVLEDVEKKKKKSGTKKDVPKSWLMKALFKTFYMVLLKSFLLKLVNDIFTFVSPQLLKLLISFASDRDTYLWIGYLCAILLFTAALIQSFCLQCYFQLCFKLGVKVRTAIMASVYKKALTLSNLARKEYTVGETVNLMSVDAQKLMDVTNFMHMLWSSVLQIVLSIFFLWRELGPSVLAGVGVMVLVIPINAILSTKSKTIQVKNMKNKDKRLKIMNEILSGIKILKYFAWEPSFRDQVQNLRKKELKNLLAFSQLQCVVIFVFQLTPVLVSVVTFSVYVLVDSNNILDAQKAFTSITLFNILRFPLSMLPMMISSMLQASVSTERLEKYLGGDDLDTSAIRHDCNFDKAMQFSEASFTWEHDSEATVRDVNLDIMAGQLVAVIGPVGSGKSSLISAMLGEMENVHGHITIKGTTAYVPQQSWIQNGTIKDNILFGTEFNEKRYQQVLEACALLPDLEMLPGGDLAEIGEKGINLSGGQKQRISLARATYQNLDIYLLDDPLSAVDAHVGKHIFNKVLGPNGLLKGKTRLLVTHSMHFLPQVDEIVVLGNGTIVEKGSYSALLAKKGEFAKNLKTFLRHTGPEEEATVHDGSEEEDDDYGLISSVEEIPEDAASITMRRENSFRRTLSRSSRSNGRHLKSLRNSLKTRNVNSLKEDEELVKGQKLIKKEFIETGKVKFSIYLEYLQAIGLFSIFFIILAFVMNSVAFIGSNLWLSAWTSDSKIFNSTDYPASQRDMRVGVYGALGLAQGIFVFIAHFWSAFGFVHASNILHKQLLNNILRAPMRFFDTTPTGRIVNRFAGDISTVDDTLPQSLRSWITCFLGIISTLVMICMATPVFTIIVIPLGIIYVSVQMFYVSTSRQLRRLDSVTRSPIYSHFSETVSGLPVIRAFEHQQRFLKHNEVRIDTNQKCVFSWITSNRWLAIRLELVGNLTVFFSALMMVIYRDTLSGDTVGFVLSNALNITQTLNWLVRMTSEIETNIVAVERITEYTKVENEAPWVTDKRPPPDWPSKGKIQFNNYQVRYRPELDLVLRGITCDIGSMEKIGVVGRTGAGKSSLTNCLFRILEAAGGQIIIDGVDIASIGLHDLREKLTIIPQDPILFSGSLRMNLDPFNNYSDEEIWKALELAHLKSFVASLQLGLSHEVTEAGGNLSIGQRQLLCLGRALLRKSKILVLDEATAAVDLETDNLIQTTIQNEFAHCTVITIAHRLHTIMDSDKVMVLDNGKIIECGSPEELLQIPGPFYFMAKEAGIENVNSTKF

Question: What does the source list for O=C(O)c1ccccc1O [SA, salicylic acid]?
Answer: PoD ([1]; ICAM1 (indicating inflammation), tested 10 μM to 10 mM): 4,000 µM; Stress pathway reporters activated ([1]; seven reporters): activated only ICAM1; Substrate of MRP2 (efflux) (Human MRP2): not a substrate; Substrate of OAT2v1 (uptake) (Human OAT2v1): not a substrate; Fraction unbound in the plasma (Fup): 3 to ∼20; Estrogen: Experimental Data (call) (estrogen receptor (ER); Tier 0): Negative; Estrogen: assays active / assays (estrogen receptor (ER)): 0/18 active; Androgen: Experimental Data (call) (androgen receptor (AR); Tier 0): Negative; Androgen: assays active / assays (androgen receptor (AR)): 1/15 active (noise); Thyroid (TR and TPO only): Experimental Data (call) ([2]; Tier 0): Negative; Thyroid (TR and TPO only): assays active / assays [2]: 0/11 active; Estrogen pathway Reporter protein Agonist: Call (estrogen receptor): Negative; Androgen pathway receptor binding: Call (androgen receptor [3]): Negative; Androgen pathway mRNA induction: Call (androgen receptor [4]): Negative; Androgen pathway Reporter protein Antagonist: Call (androgen receptor [5]): Negative; Steroidogenesis Aromatase: Call (Aromatase): Negative; Thyroid pathway receptor binding (THRa): Call (THRa): Negative; Thyroid pathway mRNA induction: Call (thyroid pathway [6]): Negative; Thyroid pathway Regulation of transcription factor activity (TSHR): Call (TSHR): Negative; Thyroid pathway Reporter protein Agonist: Call (thyroid pathway [7]): Negative; fraction unbound (in vitro): 0.029 to 0.18; NOAEL (rats): 75 mg/kg bw; Vapor pressure [8]: 0.0208 Pa
